Results: US7528274B2, “Acylthiols and component thiol compositions as anti-HIV and anti-retroviral agents” (The United States of America as represented by the …, priority 2001, dated 2009)
Like-named read-outs stand apart in the source and are kept apart here.

Tests used:
[1] = Hydrolysis assay (relative rates of hydrolysis); assay type: in vitro ADME
Source text: (§1) One of the advantages of the compounds of the present invention over previously identified antiretroviral agents is their increased hydrolytic stability, which improves their biological activity and reduces the amount of compound that must be delivered to a treated subject to produce the desired effect. […] A PATE compound having the following structure is included: […]

HIV p24 = test: p24 inhibition ELISA assay, HIV transgenic mouse model spleen cells; assay type: cell-based; details: for EC50: Human immunodeficiency virus 1; for Therapeutic Index: p24 inhibition ELISA, HIV transgenic mouse model spleen cells
Source text: as §1

[2] = XTT assay, cytotoxicity (cellular growth inhibition) in CEM-SS cells; assay type: cell-based; details: human
Source text: (§2) One exemplary means to determine antiviral activity is with CEM-SS cells and virus (e.g., HIV-1RF) (MOI=0.01) using the XTT (2,3-bis[2-methoxy-4-nitro-5-sulfophenyl]-5-[(phenylamino)carbonyl]-2H-tetrazolium hydroxide) cytoprotection assay, as described by Rice (1993) PNAS 90:9721-9724, and Rice (1997) Antimicrob. Agents Chemother. […] Briefly, cells are infected with HIV-1RF (or other virus to be tested) in the presence of various dilutions of test compounds or control compounds. The cultures are incubated for seven days. […] The cell death is measured by XTT dye reduction. XTT is a soluble tetrazolium dye that measures mitochondrial energy output, similar to MTT. […] Individual assays are done in duplicate using a sister plate method.
as §2, with “{2,3-bis[2-methoxy-4-nitro-5-sulfophenyl]-5- -[(phenylamino)carbonyl]-2H-tetrazolium hydroxide}” for “(2,3-bis[2-methoxy-4-nitro-5-sulfophenyl]-5-[(phenylamino)carbonyl]-2H-tetrazolium hydroxide)”, “Proc. Natl. Acad. Sci. USA 90: 9721-9724,” for “PNAS 90:9721-9724,”, “Agents &” for “Agents”, “and controls.” for “or control compounds.”, “method. […] Compound numbers therein refer to the numbers used in FIG. 1.” for “method.”

HIV-1RF = test: XTT cytoprotection assay, CEM-SS cells infected with HIV-1RF; assay type: cell-based; details: HIV-1RF, CEM-SS cells; for EC50: read-out: EC50 (50% cytoprotection), seven days, XTT
Source text: as §2
as §2, with “{2,3-bis[2-methoxy-4-nitro-5-sulfophenyl]-5- -[(phenylamino)carbonyl]-2H-tetrazolium hydroxide}” for “(2,3-bis[2-methoxy-4-nitro-5-sulfophenyl]-5-[(phenylamino)carbonyl]-2H-tetrazolium hydroxide)”, “Proc. Natl. Acad. Sci. USA 90: 9721-9724,” for “PNAS 90:9721-9724,”, “Agents &” for “Agents”, “and controls.” for “or control compounds.”, “method. […] Compound numbers therein refer to the numbers used in FIG. 1.” for “method.”

[3] = system: HIV transgenic mouse model spleen cells; test: Cytotoxicity, HIV transgenic mouse model spleen cells; assay type: cell-based
Source text: as §1

PBMCs [4] = test: XTT assay, cytotoxicity, HIV-1 144-44/PBMCs section; assay type: cell-based
Source text: as §2, with “{2,3-bis[2-methoxy-4-nitro-5-sulfophenyl]-5- -[(phenylamino)carbonyl]-2H-tetrazolium hydroxide}” for “(2,3-bis[2-methoxy-4-nitro-5-sulfophenyl]-5-[(phenylamino)carbonyl]-2H-tetrazolium hydroxide)”, “Proc. Natl. Acad. Sci. USA 90: 9721-9724,” for “PNAS 90:9721-9724,”, “Agents &” for “Agents”, “and controls.” for “or control compounds.”, “method. […] Compound numbers therein refer to the numbers used in FIG. 1.” for “method.”

HIV-1 (RoJo) = assay type: cell-based; details: HIV-1 (RoJo/PBMCs)
Source text: as §2, with “{2,3-bis[2-methoxy-4-nitro-5-sulfophenyl]-5- -[(phenylamino)carbonyl]-2H-tetrazolium hydroxide}” for “(2,3-bis[2-methoxy-4-nitro-5-sulfophenyl]-5-[(phenylamino)carbonyl]-2H-tetrazolium hydroxide)”, “Proc. Natl. Acad. Sci. USA 90: 9721-9724,” for “PNAS 90:9721-9724,”, “Agents &” for “Agents”, “and controls.” for “or control compounds.”, “method. […] Compound numbers therein refer to the numbers used in FIG. 1.” for “method.”

PBMCs [5] = test: XTT assay, cytotoxicity, HIV-1 (RoJo/PBMCs) section; assay type: cell-based
Source text: as §2, with “{2,3-bis[2-methoxy-4-nitro-5-sulfophenyl]-5- -[(phenylamino)carbonyl]-2H-tetrazolium hydroxide}” for “(2,3-bis[2-methoxy-4-nitro-5-sulfophenyl]-5-[(phenylamino)carbonyl]-2H-tetrazolium hydroxide)”, “Proc. Natl. Acad. Sci. USA 90: 9721-9724,” for “PNAS 90:9721-9724,”, “Agents &” for “Agents”, “and controls.” for “or control compounds.”, “method. […] Compound numbers therein refer to the numbers used in FIG. 1.” for “method.”

SIV (Mac 251) = test: XTT cytoprotection assay, SIV (Mac 251); assay type: cell-based
Source text: as §2, with “{2,3-bis[2-methoxy-4-nitro-5-sulfophenyl]-5- -[(phenylamino)carbonyl]-2H-tetrazolium hydroxide}” for “(2,3-bis[2-methoxy-4-nitro-5-sulfophenyl]-5-[(phenylamino)carbonyl]-2H-tetrazolium hydroxide)”, “Proc. Natl. Acad. Sci. USA 90: 9721-9724,” for “PNAS 90:9721-9724,”, “Agents &” for “Agents”, “and controls.” for “or control compounds.”, “method. […] Compound numbers therein refer to the numbers used in FIG. 1.” for “method.”

HIV-2 (Rod) = test: XTT cytoprotection assay, HIV-2 (Rod/CEM-SS); assay type: cell-based
Source text: as §2, with “{2,3-bis[2-methoxy-4-nitro-5-sulfophenyl]-5- -[(phenylamino)carbonyl]-2H-tetrazolium hydroxide}” for “(2,3-bis[2-methoxy-4-nitro-5-sulfophenyl]-5-[(phenylamino)carbonyl]-2H-tetrazolium hydroxide)”, “Proc. Natl. Acad. Sci. USA 90: 9721-9724,” for “PNAS 90:9721-9724,”, “Agents &” for “Agents”, “and controls.” for “or control compounds.”, “method. […] Compound numbers therein refer to the numbers used in FIG. 1.” for “method.”

cells [6] = test: XTT assay, cytotoxicity, HIV-1 1026040 section; assay type: cell-based
Source text: as §2, with “{2,3-bis[2-methoxy-4-nitro-5-sulfophenyl]-5- -[(phenylamino)carbonyl]-2H-tetrazolium hydroxide}” for “(2,3-bis[2-methoxy-4-nitro-5-sulfophenyl]-5-[(phenylamino)carbonyl]-2H-tetrazolium hydroxide)”, “Proc. Natl. Acad. Sci. USA 90: 9721-9724,” for “PNAS 90:9721-9724,”, “Agents &” for “Agents”, “and controls.” for “or control compounds.”, “method. […] Compound numbers therein refer to the numbers used in FIG. 1.” for “method.”

cells [7] = test: XTT assay, cytotoxicity, SIV (Mac 251) section; assay type: cell-based
Source text: as §2, with “{2,3-bis[2-methoxy-4-nitro-5-sulfophenyl]-5- -[(phenylamino)carbonyl]-2H-tetrazolium hydroxide}” for “(2,3-bis[2-methoxy-4-nitro-5-sulfophenyl]-5-[(phenylamino)carbonyl]-2H-tetrazolium hydroxide)”, “Proc. Natl. Acad. Sci. USA 90: 9721-9724,” for “PNAS 90:9721-9724,”, “Agents &” for “Agents”, “and controls.” for “or control compounds.”, “method. […] Compound numbers therein refer to the numbers used in FIG. 1.” for “method.”

[8] = system: HIV-1 144-44 (mutation L10I/M46I/I54V/L63P/A71V/V82A/L90M); test: XTT assay against drug resistant mutant HIV-1 144-44 in PBMCs; assay type: cell-based; details: HIV-1 144-44/PBMCs
Source text: as §2, with “{2,3-bis[2-methoxy-4-nitro-5-sulfophenyl]-5- -[(phenylamino)carbonyl]-2H-tetrazolium hydroxide}” for “(2,3-bis[2-methoxy-4-nitro-5-sulfophenyl]-5-[(phenylamino)carbonyl]-2H-tetrazolium hydroxide)”, “Proc. Natl. Acad. Sci. USA 90: 9721-9724,” for “PNAS 90:9721-9724,”, “Agents &” for “Agents”, “and controls.” for “or control compounds.”, “method. […] Compound numbers therein refer to the numbers used in FIG. 1.” for “method.”

CEM-SS = test: XTT assay, cytotoxicity, HIV-2 (Rod/CEM-SS) section; assay type: cell-based
Source text: as §2, with “{2,3-bis[2-methoxy-4-nitro-5-sulfophenyl]-5- -[(phenylamino)carbonyl]-2H-tetrazolium hydroxide}” for “(2,3-bis[2-methoxy-4-nitro-5-sulfophenyl]-5-[(phenylamino)carbonyl]-2H-tetrazolium hydroxide)”, “Proc. Natl. Acad. Sci. USA 90: 9721-9724,” for “PNAS 90:9721-9724,”, “Agents &” for “Agents”, “and controls.” for “or control compounds.”, “method. […] Compound numbers therein refer to the numbers used in FIG. 1.” for “method.”

[9] = system: HIV-1 1026040 (mutation V32I/M46I/L63P/L90M); test: XTT assay against drug resistant mutant HIV-1 1026040; assay type: cell-based
Source text: as §2, with “{2,3-bis[2-methoxy-4-nitro-5-sulfophenyl]-5- -[(phenylamino)carbonyl]-2H-tetrazolium hydroxide}” for “(2,3-bis[2-methoxy-4-nitro-5-sulfophenyl]-5-[(phenylamino)carbonyl]-2H-tetrazolium hydroxide)”, “Proc. Natl. Acad. Sci. USA 90: 9721-9724,” for “PNAS 90:9721-9724,”, “Agents &” for “Agents”, “and controls.” for “or control compounds.”, “method. […] Compound numbers therein refer to the numbers used in FIG. 1.” for “method.”

HIV-1 virus = test: Infectivity of treated virions, PCR assay for intracellularly-synthesized viral RNA; assay type: cell-based
Source text: The treated virions can also be tested for infectivity. The virions are suspended in media (rather than solubilized) and added to target cells. The cultures are then examined to determine whether the virions are still active. To determine whether the treated virus particles are active, the cells are monitored for the presence of intracellularly-synthesized viral RNA using, for example, the polymerase chain reaction (PCR) (Rice (1993) Proc. Natl. Acad. Sci. USA 90:9721; Turpin (1996) J. Virol. 70:6180). Alternatively, cytoprotection assays can be used (Weislow (1993) J. Natl. Cancer Inst. 81:577). An example of a compound which can be used as a control in the gel mobility shift assay is azodicarbonamide (ADA), a compound which is commercially available from the Aldrich Chemical Company (Milwaukee, Wis.).

[10] = Human immunodeficiency virus 1, 168 h

Row | SMILES | half-life [1] | EC50 (HIV p24) | Therapeutic Index (HIV p24) | IC50 at 7 days [2] | Therapeutic Index (HIV-1RF) | EC50 (HIV-1RF; [10]) | IC50 [3] | further results
1 | Cc1ccccc1C(=O)Sc1ccccc1C(=O)NCCC(N)=O [Compound 22] | 6.8 h | 2.6 µM | 23 | 22 µM | 2.3 | 9.7 µM | 59 µM | –
2 | Cc1cn([C@H]2C[C@H](N=[N+]=[N-])[C@@H](CO)O2)c(=O)[nH]c1=O [AZT, 3′-azido-2′, 3′-dideoxythymidine, reference compound] | – | – | – | – | – | – | – | IC50 (PBMCs [4]): > 200 µM; EC50 (HIV-1 (RoJo)): 0.01 µM; IC50 (PBMCs [5]): > 4 µM; EC50 (SIV (Mac 251)): 0.02 µM; EC50 (HIV-2 (Rod)): 0.017 µM; IC50 (cells [6]): > 1 µM; IC50 (cells [7]): > 1 µM; EC50 [8]: 1.3 µM; TI [8]: >153; IC50 (CEM-SS): > 1 µM; EC50 [9]: 0.006 µM; TI [9]: >167
3 | COc1cc(OC)cc(C(=O)Sc2ccccc2C(=O)NCCC(N)=O)c1 [Compound 12] | 7.75 h | 3.5 µM | 39 | 102 µM | 13 | 8.1 µM | 136 µM | –
4 | NC(=O)N=NC(N)=O [ADA, azodicarbonamide] | – | – | – | – | – | – | – | Inactivation of HIV-1 virus (HIV-1 virus): inactivates HIV-1 virus
5 | CC(C)(C)c1ccc(C(=O)Sc2ccccc2C(=O)NCCC(N)=O)cc1 [Compound 23] | > 8.33 h | 2.2 µM | 56 | 107 µM | 24 | 4.5 µM | 123 µM | –
6 | NC(=O)C1CN1C(=O)c1ccccc1SC(=O)NC1CCCCC1 (centres unmarked) [Compound 129] | – | – | – | – | – | – | – | IC50 (PBMCs [4]): > 200 µM; EC50 (HIV-1 (RoJo)): 3.8 µM; IC50 (PBMCs [5]): 184 µM; EC50 (SIV (Mac 251)): 0.29 µM; EC50 (HIV-2 (Rod)): 0.104 µM; IC50 (cells [6]): > 200 µM; EC50 (HIV-1RF): 0.55 µM; IC50 (cells [7]): 21.8 µM; EC50 [8]: 0.17 µM; TI [8]: >1168; IC50 (CEM-SS): 6.54 µM; EC50 [9]: 4 µM; TI [9]: >51
7 | NS(=O)(=O)c1ccc(CNC(=O)c2ccccc2SC(=O)NCCCCl)cc1 [Compound 88] | – | – | – | 9 µM | 19 | 0.48 µM | – | –
8 | NC(=O)CCNC(=O)c1ccccc1SC(=O)OCCBr [Compound 102] | – | – | – | > 316 µM | 60.6 | 5.21 µM | – | –
